The assay relates to spontaneously hypertensive rats (SHR). Description: Evaluation of hypotensive effect of FH1041 with added hydroxyhydroquinone (Example 3). In kind it is in vivo, rat. The conditions noted are these: oral, HHQ added to FH1041 (300 mg/kg as total chlorogenic acids). As to the method: (a) As in Example 2, 12-week-old male spontaneously hypertensive rats (SHR) was bred preliminarily.
(B) Administration Method and Amount: • Physiological saline was orally administered to a control group. An extract from raw coffee beans (“Flavor Holder FH1041”, product of T. Hasegawa Co., Ltd.) having chlorogenic acids as a main component was administered to a comparison group. The extract was prepared so that its administration amount would be 300 mg/kg in terms of the total chlorogenic acid amount. In test group 1, an administration material was prepared to permit the administration of FH1041 in an amount of 300 mg/kg in terms of a total chlorogenic acid amount and the administration of hydroxyhydroquinone in an amount of 0.03 mg/kg (0.01% relative to the total chlorogenic acid amount). In test group 2, an administration material was prepared to permit the administration of FH1041 in an amount of 300 mg/kg in terms of a total chlorogenic acid amount and the administration of hydroxyhydroquinone in an amount of 0.3 mg/kg (0.1% relative to the total chlorogenic acid amount). […]
Test method: One group consisted of three SHR. Systolic blood pressures of the caudal artery were measured prior to oral administration and 12 hours after administration and based on them, a percent change in blood pressure was calculated. […]

The text below walks through data of patent US8178148B2, “Coffee drink composition” (Kao Corporation, priority 2004, dated 2012).

With `Oc1ccc(O)c(O)c1` [hydroxyhydroquinone], the “Influence on the hypotensive effect of chlorogenic acids” value is on record as “disturbed”.
